Reference: article PMC7221111 (Drugs in R&D, 2020)
Where “and” joins values, the source holds several entries; their conditions need not be identical. Equal entries are not always repeated. Where two headings read alike, the source gives them in different places.

What was measured:
[1] = cited from earlier work
[2] = Population pharmacokinetic model of vancomycin in preterm neonates; settings: 500 non-parametric bootstrap runs; typical individual 1.48 kg

CL, bootstrap median (95% CI) [2]: 0.1 (0.09–0.11) L/h
Vd, bootstrap median (95% CI) [2]: 0.86 (0.804–0.93) L
SMILES: CN[C@H](CC(C)C)C(=O)N[C@H]1C(=O)N[C@@H](CC(N)=O)C(=O)N[C@H]2C(=O)N[C@H]3C(=O)N[C@H](C(=O)N[C@H](C(=O)O)c4cc(O)cc(O)c4-c4cc3ccc4O)[C@H](O)c3ccc(c(Cl)c3)Oc3cc2cc(c3O[C@@H]2O[C@H](CO)[C@@H](O)[C@H](O)[C@H]2O[C@H]2C[C@](C)(N)[C@H](O)[C@H](C)O2)Oc2ccc(cc2Cl)[C@H]1O [vancomycin]
Clearance, range reported in a similar population of neonates [1]: 0.054 to 0.07 L/h
Vd, range reported in a similar population of neonates [1]: 0.58 to 1.19 L
Variation in Vd ([1]; neonatal populations): 32% and 29.4%
Variation in clearance ([1]; neonates): 32%
Variation in Vd ([1]; paediatric populations): 43% and 77%
